In ChEMBL document CHEMBL1201862, “PubChem BioAssay data set” (2004):
Calls of active or inactive are those of the source.

What was measured:
[1] = target: T1, E3 ubiquitin-protein ligase XIAP (Homo sapiens, UniProt P98170); assay: Counter Screen using XIAP-Bir3 for Chemical Antagonists of Bir1/2 domains of IAP-family anti-apoptotic proteins. [Related pubchem assays (depositor defined):AID1018, AID1449, AID1514, AID1638, AID1749, AID1750, AID488957, AID488963]
[2] = target: T1, E3 ubiquitin-protein ligase XIAP; assay: small molecules displacing peptide from XIAP – biochemical, IAP family, fluorescence polarization (AID 1018); format: functional
[3] = target: T2, Polyadenylate-binding protein 1 (Homo sapiens, UniProt P11940); assay: MLLE binding blockers, Cy5 peptide tracer – biochemical, fluorescence polarization, Cy5-PAM2 peptide, secondary, miRNA deadenylation inhibitor project, dose response (AID 602260); format: functional; details: read-out: IC50_Mean
[4] = target: T2, Polyadenylate-binding protein 1; assay: MLLE domain peptide-binding blockers, IC50 – biochemical, fluorescence polarization, FITC-PAM2 peptide, dose response (AID 602259); format: functional; details: read-out: IC50_Mean
[5] = target: Peroxisome proliferator-activated receptor gamma/Nuclear receptor coactivator 1 (Homo sapiens, UniProt P37231); assay: TR-FRET dose response biochemical High Throughput Screening assay for agonists of the steroid receptor coactivator 1 (SRC-1) recruitment by the peroxisome proliferator-activated receptor gamma (PPAR gamma): non-selective agonists. [Related pubchem assays (depositor defined):AID1300, AID1808, AID504735, AID631]; format: protein assay
[6] = target: Peroxisome proliferator-activated receptor gamma/Nuclear receptor coactivator 3 (Homo sapiens, UniProt P37231); assay: TR-FRET dose response biochemical High Throughput Screening assay for agonists of the steroid receptor coactivator 3 (SRC-3) recruitment by the peroxisome proliferator-activated receptor gamma (PPAR gamma): non-selective agonists. [Related pubchem assays: 1301 (Confirmation screen.), 1048 (Primary screen.)]; format: functional
Chain of Peroxisome proliferator-activated receptor gamma/Nuclear receptor coactivator 3 (P37231 whole entry): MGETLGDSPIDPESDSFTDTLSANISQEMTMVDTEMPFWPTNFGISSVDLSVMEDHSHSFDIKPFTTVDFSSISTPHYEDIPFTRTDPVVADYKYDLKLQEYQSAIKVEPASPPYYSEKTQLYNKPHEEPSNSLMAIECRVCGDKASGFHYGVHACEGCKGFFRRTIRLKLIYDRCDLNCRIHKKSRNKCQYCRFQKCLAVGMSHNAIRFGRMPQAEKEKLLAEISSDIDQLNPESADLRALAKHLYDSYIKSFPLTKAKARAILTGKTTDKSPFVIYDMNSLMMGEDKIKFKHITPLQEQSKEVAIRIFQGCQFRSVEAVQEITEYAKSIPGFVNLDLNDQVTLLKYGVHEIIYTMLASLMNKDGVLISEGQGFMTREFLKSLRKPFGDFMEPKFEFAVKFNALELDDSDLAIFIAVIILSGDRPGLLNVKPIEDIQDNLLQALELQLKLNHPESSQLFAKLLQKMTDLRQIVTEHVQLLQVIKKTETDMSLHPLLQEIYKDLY
Chain of Peroxisome proliferator-activated receptor gamma/Nuclear receptor coactivator 3 (Q9Y6Q9 whole entry, further chain): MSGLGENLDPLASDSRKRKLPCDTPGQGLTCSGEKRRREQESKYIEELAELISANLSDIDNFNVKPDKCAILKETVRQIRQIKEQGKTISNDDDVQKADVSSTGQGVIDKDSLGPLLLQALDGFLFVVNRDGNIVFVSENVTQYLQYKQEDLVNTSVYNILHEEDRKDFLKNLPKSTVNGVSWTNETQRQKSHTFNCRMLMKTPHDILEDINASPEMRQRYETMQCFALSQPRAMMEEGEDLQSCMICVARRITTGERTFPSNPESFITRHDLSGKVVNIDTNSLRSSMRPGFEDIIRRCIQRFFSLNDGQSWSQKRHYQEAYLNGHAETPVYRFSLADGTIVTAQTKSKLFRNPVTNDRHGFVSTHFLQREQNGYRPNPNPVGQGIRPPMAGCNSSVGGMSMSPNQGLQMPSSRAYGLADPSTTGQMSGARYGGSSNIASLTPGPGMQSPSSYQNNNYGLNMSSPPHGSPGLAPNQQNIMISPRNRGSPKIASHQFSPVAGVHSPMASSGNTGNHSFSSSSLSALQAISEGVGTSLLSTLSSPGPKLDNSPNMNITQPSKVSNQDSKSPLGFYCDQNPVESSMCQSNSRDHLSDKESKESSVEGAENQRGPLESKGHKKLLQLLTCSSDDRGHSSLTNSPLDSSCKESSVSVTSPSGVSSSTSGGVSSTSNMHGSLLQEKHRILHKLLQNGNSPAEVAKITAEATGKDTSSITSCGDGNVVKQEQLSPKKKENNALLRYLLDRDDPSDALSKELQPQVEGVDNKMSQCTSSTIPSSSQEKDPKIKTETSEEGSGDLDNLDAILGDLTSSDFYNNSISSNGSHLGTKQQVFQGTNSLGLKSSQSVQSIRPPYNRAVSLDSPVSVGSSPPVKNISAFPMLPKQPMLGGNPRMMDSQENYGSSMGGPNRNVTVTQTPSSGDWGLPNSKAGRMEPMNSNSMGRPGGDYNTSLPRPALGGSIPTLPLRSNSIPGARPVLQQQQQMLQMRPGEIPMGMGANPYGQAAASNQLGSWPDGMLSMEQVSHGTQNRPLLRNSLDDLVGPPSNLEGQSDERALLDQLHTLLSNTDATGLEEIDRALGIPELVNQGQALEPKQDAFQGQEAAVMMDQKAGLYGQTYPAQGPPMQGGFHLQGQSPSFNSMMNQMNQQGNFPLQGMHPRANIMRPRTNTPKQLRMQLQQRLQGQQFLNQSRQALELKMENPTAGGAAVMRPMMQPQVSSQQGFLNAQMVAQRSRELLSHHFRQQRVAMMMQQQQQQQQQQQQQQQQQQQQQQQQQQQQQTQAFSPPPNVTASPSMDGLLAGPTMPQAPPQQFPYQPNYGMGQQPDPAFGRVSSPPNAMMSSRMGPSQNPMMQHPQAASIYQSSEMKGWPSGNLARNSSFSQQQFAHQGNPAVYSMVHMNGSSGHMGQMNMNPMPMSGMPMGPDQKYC

[7] = target: Peroxisome proliferator-activated receptor gamma/Nuclear receptor coactivator 2 (Homo sapiens, UniProt P37231); assay: TR-FRET dose response biochemical High Throughput Screening assay for agonists of the steroid receptor coactivator 2 (SRC-2) recruitment by the peroxisome proliferator-activated receptor gamma (PPAR gamma): non-selective agonists. [Related pubchem assays: 1297, 1032 ]; format: functional
Chain of Peroxisome proliferator-activated receptor gamma/Nuclear receptor coactivator 2 (P37231 whole entry): as the sequence (P37231 whole entry) above
Chain of Peroxisome proliferator-activated receptor gamma/Nuclear receptor coactivator 2 (Q15596 whole entry, further chain): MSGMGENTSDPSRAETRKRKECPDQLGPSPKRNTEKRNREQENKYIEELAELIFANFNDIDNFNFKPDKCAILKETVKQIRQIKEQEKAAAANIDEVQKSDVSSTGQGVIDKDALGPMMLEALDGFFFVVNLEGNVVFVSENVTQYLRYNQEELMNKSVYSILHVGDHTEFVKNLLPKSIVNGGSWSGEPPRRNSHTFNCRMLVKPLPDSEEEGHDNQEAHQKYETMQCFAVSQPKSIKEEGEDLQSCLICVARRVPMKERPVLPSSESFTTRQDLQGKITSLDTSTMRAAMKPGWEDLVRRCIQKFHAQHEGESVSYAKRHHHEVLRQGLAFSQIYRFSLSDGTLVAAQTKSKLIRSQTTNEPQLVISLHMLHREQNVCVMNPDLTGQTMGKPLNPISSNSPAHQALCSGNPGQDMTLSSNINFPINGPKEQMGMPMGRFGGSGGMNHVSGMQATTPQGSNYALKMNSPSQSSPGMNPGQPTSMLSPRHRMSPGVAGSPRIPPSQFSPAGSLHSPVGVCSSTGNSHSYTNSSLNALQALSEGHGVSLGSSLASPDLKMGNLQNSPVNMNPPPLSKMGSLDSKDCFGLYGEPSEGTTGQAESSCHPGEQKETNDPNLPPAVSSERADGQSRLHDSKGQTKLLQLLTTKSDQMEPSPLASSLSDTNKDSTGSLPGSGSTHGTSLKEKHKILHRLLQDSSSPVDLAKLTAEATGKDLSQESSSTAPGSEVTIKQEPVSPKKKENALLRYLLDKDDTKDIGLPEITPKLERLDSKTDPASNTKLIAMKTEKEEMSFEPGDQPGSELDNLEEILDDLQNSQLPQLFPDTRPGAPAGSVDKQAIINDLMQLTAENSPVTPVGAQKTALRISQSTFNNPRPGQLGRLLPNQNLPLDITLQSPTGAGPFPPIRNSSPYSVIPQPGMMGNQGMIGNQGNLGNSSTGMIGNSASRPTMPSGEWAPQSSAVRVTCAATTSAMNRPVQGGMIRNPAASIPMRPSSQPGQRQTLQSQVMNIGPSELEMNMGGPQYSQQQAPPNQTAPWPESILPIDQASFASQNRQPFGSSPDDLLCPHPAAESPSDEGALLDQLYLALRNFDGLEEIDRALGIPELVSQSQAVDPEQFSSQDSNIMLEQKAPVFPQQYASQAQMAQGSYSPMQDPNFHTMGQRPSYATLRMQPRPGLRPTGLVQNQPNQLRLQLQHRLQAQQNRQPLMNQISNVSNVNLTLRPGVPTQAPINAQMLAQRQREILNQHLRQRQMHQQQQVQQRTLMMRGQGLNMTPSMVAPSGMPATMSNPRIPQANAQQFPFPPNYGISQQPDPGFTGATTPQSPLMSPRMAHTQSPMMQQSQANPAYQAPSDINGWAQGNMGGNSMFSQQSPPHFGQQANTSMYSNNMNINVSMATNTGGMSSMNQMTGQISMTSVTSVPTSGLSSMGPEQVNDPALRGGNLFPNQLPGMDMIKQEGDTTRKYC

[8] = target: T3, Mannose-6-phosphate isomerase (Homo sapiens, UniProt P34949); assay: MPI enzyme activity inhibition – biochemical, fluorescence intensity, coupled assay, primary screen (AID 1209)
T3 sequence (P34949 whole entry): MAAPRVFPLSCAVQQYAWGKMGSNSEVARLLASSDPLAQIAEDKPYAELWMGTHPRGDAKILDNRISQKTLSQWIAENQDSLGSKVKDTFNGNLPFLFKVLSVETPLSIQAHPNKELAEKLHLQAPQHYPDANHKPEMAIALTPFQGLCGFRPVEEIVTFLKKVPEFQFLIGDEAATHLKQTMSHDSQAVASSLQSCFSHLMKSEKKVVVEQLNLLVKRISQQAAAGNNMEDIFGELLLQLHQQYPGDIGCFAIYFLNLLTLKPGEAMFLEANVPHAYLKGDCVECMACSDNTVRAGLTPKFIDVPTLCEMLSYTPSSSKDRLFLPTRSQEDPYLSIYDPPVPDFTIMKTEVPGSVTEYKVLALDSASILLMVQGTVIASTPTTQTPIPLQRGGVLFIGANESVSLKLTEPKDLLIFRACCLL

[9] = target: T3, Mannose-6-phosphate isomerase; assay: phosphomannose isomerase inhibition – biochemical, fluorescence intensity, confirmation (AID 1535)
Phosphomannomutase 2 = Phosphomannomutase 2 (Homo sapiens, UniProt O15305); assay: Counter screen SAR assay for PMM2 inhibitors via a fluorescence intensity assay. [Related pubchem assays (depositor defined):AID1545, AID1574]
Chain of Phosphomannomutase 2 (O15305 whole entry): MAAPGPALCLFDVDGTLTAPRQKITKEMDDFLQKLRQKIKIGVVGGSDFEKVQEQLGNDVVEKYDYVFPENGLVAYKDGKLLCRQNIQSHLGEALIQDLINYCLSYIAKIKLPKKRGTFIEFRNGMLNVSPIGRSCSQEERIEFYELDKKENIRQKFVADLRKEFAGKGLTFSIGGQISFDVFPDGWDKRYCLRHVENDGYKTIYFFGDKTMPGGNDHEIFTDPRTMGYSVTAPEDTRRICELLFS

SUMO-activating enzyme = SUMO-activating enzyme (Homo sapiens, UniProt Q9UBT2); assay: blockers of UBC9-mediated SUMO conjugation – biochemical, AlphaScreen, SUMOylation inhibitor project, confirmation (AID 2018); format: functional
[10] = target: T4, Corticotropin-releasing factor receptor 2/Corticotropin-releasing factor-binding protein (Homo sapiens, UniProt P24387+Q13324); assay: Dose Response confirmation of uHTS hits for small molecule antagonists of the CRF-binding protein and CRF-R2 receptor complex.; format: functional; details: read-out: IC50_Mean
T4 sequence (Q13324 whole entry): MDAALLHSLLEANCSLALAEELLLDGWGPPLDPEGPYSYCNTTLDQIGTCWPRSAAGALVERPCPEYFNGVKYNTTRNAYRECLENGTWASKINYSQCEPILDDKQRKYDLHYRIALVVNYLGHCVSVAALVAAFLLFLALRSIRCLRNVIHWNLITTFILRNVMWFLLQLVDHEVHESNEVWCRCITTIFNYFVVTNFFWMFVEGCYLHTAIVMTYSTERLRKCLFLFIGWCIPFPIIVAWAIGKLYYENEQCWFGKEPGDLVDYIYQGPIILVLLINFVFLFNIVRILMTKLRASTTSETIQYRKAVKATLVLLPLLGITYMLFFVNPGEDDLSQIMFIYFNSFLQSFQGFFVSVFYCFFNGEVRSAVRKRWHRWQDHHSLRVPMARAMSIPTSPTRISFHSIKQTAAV
T4 sequence (P24387 whole entry): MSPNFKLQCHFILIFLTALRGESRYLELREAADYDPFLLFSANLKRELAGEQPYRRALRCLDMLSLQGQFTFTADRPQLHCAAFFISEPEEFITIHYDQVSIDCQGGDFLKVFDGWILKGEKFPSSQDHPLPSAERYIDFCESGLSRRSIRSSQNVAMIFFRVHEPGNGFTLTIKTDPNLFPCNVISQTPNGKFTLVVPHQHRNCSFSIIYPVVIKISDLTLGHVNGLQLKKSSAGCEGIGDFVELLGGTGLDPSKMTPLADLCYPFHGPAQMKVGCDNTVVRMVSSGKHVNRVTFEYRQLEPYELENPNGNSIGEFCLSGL

[11] = target: T4, Corticotropin-releasing factor receptor 2/Corticotropin-releasing factor-binding protein; assay: activators of CRF receptor 2 with binding protein – uHTS hits, confirmation (AID 602473); format: functional; details: read-out: EC50_Mean
[12] = target: T5, Beta-adrenergic receptor kinase 1 (Homo sapiens, UniProt P25098); assay: blockers of aptamer binding to GRK2 – biochemical, flow cytometry beads, FAM-aptamer, powder set 1, dose response (AID 588720)
T5 sequence (P25098 whole entry): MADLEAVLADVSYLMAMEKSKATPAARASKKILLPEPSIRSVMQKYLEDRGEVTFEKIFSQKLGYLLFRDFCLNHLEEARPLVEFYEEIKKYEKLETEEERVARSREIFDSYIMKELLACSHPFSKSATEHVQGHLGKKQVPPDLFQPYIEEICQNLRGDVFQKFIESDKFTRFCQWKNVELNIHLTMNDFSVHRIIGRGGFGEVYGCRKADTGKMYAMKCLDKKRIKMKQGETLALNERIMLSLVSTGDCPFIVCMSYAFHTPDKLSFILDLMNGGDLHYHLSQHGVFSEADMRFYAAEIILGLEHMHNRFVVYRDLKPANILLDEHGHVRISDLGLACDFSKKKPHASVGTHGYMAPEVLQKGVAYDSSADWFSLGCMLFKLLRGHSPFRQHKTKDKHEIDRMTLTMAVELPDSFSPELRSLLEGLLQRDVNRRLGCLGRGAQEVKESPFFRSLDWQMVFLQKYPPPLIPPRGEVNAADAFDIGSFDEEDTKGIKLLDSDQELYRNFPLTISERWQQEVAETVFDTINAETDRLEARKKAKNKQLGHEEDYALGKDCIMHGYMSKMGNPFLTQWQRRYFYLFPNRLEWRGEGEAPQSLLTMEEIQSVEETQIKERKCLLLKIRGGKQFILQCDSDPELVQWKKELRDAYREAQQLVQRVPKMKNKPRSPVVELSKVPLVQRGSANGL

[13] = target: Peroxisome proliferator-activated receptor gamma/Nuclear receptor corepressor 2 (Homo sapiens, UniProt P37231+Q9Y618); assay: Counterscreen for NR2E3 inverse agonists: TR-FRET-based biochemical high throughput dose response assay to identify inverse agonists of the interaction between peroxisome proliferator-activated receptor gamma (PPARg) and nuclear receptor co-repressor 2 (NCOR2).; format: functional
[14] = target: Photoreceptor-specific nuclear receptor (Homo sapiens, UniProt Q9Y5X4); assay: ligands suppressing NR2E3 nuclear receptor activity – biochemical, TR-FRET, dose response (AID 463256); format: functional
[15] = target: Lysine-specific demethylase 4A (Homo sapiens, UniProt O75164); assay: inhibition of JMJD2A H3K9me3 demethylation – biochemical, DELFIA europium, cherry-picked samples, selectivity assay for GASC-1 inhibitor project, dose response (AID 488840)
[16] = target: T6, Nucleotide-binding oligomerization domain-containing protein 1 (Homo sapiens, UniProt Q9Y239); assay: SAR analysis of compounds that inhibit NOD1 - Set 3. [Related pubchem assays (depositor defined):AID1566, AID1575, AID1578, AID1849, AID1852, AID2333, AID2335, AID2466]; format: functional
T6 sequence (Q9Y239 whole entry): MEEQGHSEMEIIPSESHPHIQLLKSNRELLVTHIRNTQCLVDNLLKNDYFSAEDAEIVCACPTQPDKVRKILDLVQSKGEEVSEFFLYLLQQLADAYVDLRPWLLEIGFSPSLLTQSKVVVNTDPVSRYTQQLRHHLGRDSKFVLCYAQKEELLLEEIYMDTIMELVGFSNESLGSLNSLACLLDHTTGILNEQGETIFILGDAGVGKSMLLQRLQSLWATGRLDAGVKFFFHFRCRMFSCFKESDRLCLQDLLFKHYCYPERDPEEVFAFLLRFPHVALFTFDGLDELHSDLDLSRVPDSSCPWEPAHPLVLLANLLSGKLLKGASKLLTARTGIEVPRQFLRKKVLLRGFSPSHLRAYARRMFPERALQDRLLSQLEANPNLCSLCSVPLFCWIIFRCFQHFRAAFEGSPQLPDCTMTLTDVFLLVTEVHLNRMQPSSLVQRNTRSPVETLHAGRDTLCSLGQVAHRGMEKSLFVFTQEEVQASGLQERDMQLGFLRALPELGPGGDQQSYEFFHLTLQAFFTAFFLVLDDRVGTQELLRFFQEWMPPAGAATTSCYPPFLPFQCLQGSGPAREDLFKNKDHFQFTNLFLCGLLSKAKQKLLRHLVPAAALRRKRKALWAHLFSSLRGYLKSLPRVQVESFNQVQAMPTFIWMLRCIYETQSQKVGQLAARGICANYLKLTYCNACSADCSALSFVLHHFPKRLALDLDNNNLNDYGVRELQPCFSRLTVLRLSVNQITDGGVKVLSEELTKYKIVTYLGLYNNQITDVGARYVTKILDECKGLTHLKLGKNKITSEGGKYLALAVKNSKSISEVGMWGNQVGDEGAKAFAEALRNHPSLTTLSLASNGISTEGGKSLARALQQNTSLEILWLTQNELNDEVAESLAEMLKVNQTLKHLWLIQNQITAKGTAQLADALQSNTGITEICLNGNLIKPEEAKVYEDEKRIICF

Tumor necrosis factor [17] = target: T7, Tumor necrosis factor (Homo sapiens, UniProt P01375); assay: analog potency on TNFa NF-kB signaling – cell-based, set 3, SAR follow-up (AID 2801); format: functional
T7 sequence (P01375 whole entry): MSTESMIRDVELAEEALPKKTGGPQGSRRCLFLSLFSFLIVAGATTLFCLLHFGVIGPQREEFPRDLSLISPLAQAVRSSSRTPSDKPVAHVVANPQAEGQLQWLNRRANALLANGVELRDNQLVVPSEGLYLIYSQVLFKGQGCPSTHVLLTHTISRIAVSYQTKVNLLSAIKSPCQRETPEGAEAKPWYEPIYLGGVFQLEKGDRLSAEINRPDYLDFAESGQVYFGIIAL

HEK293 [18] = assay: SAR analysis of compounds that are cytotoxic to HEK293 - Set 3. [Related pubchem assays (depositor defined):AID1575, AID1578, AID1848, AID1849, AID2001, AID2333, AID2334, AID2335, AID2337, AID2469]; format: functional, cell-based; details: Homo sapiens
[19] = target: Nucleotide-binding oligomerization domain-containing protein 2 (Homo sapiens, UniProt Q9HC29); assay: inhibition of MDP-driven NOD2 NF-kB reporter – cell-based, set 3, SAR follow-up (AID 2799); format: functional
Tumor necrosis factor [20] = target: T7, Tumor necrosis factor; assay: analog potency on TNFa NF-kB signaling – cell-based, revised, SAR follow-up (AID 2337); format: functional
[21] = target: T6, Nucleotide-binding oligomerization domain-containing protein 1; assay: blockers of NOD1 pathway activity – revised, SAR follow-up (AID 2333); format: functional
HEK293 [22] = assay: cells; details: Homo sapiens

T1 sequence (P98170 whole entry): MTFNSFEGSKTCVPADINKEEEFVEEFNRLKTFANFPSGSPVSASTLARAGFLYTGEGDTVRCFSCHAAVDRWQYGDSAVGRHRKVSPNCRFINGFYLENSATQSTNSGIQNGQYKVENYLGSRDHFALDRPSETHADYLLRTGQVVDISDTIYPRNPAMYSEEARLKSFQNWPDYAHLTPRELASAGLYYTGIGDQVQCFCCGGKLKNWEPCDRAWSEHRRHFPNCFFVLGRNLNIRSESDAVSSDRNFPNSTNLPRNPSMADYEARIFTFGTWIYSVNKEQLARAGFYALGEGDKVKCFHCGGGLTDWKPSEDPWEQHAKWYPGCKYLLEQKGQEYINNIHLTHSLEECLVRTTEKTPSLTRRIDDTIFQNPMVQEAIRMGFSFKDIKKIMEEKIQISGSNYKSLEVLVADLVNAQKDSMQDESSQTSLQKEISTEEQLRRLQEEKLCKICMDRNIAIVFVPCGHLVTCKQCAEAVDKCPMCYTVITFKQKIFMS

Cc1cccc(N(CC(N)=O)C2SC(=O)N(c3ccccc3)C2=O)c1 (configuration not stated)
IC50 [1]: > 100 µM (inactive)
IC50 [2]: > 100 µM (not active)
IC50 [3]: > 66 µM (inactive)
IC50 [4]: > 66 µM (inactive)

Cc1ccc(-c2cc(C(=O)NCc3cn(C)nc3C)c3cc(Br)ccc3n2)cc1
EC50 [5]: 13.8 µM (inactive)
EC50 [6]: 40.7 µM (not active)
EC50 [7]: 10.8 µM (not active)

N#CC1=C2SCN(Cc3ccccc3)CN2C(=O)CC1c1ccc2c(c1)OCO2 (configuration not stated)
IC50 [8]: 16 µM (active)
IC50 [9]: 36.9 µM (active)
IC50 (Phosphomannomutase 2): > 100 µM (inactive)

CN(C)c1ccc(NC(=O)c2sc(SCC(=O)Nc3ccc(Br)cc3)nc2N)cc1
IC50 (SUMO-activating enzyme): 41.5 µM (active)

CC1=C(C(=O)NCc2ccccn2)C2(CCC(C)CC2)OC1=O (configuration not stated)
IC50 [1]: > 100 µM (inactive)
IC50 [2]: > 100 µM (not active)
IC50 [10]: > 47.1 µM (inactive)
EC50 [11]: > 53 µM (inactive)

Cc1cccc(CCNC(=O)CCS(=O)(=O)c2ccc(Br)cc2)c1
EC50 [12]: 22.3 µM (inactive)

Cc1nc2ccc3nc(NC(=O)c4ccc5c(c4)OCCO5)sc3c2s1
EC50 [5]: 4.06 µM (active)
EC50 [6]: 10.3 µM (not active)
IC50 [13]: 1.23 µM (active)
IC50 [14]: 813 nM (active)
EC50 [7]: 3.98 µM (active)

O=c1n(Cc2ccccc2)c2cc(Cl)cnc2n1Cc1ccccc1
AC50 [15]: 9.18 µM (active)

Nc1cc(-c2ccccc2)nn1S(=O)(=O)c1ccc(F)c(Cl)c1
IC50 [16]: > 20 µM (inactive)
IC50 (Tumor necrosis factor [17]): > 20 µM (inactive)
IC50 (HEK293 [18]): > 20 µM (inactive)
IC50 [19]: > 20 µM (inactive)

COc1ccc(NC(=O)c2ccc(CN3CCc4ccccc4C3)cc2)cc1
IC50 (Tumor necrosis factor [20]): 0.65 µM (active)
IC50 [21]: 0.513 µM (active)
IC50 (HEK293 [22]): > 20 µM (inactive)

COC(=O)CC1=NN(c2ccccc2)C(=O)/C1=C/Nc1ccc(C)cc1
IC50 (Tumor necrosis factor [20]): > 20 µM (inactive)
IC50 [21]: > 20 µM (inactive)
IC50 (HEK293 [22]): > 20 µM (inactive)
